Experimental data: publication PMC10053369, “Recombinant Analogs of Sea Anemone Kunitz-Type Peptides Influence P2X7 Receptor Activity in Neuro-2a Cells” (Marine Drugs, 2023)
Positions of bridges follow the written chain, without caps; N, C: chain ends. No end group written: not given here.

Biological target: T1, hP2X7 (47–334 a.a., extracellular domain, 36.8 kDa) (Homo sapiens, UniProt Q99572)
T1 construct: hP2X7 (47–334 a.a., extracellular domain, 36.8 kDa); purchased Abbexa LTD, Cambridge, UK abx167020
T1 sequence (Q99572 47-334): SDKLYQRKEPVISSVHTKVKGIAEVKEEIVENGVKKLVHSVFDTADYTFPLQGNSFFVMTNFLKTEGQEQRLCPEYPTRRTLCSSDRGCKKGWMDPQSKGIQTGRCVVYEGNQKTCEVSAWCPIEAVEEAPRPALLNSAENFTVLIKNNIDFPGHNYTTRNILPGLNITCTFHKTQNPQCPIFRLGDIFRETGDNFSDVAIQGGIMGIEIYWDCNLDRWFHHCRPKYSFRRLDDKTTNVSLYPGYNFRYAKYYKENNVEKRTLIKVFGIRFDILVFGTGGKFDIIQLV
Assay: Surface plasmon resonance (Biacore 3000)
Type: binding
Experimental: SPR analysis was performed at 25 °C using a Biacore® 3000 optical biosensor (GE Healthcare, Chicago, IL, USA) and CM5 sensor chips. HBS-N (10 mM HEPES, 150 mM NaCl, pH 7.4) (Cytiva, Chicago, IL, USA) was used as a working buffer for the immobilization of hP2X7 (47–334 a.a., extracellular domain, 36.8 kDa) (abx167020 Abbexa LTD, Cambridge, UK). The carboxyl groups of the dextran biosensor chip were activated for 5 min by introducing a 1:1 mixture of 0.2 M 1-ethyl-3-(3-dimethylaminopropyl)carbodiimide hydrochloride (EDC) and 0.05 M N-hydroxysuccinimide (NHS) at a rate of 5 µL/min followed by a 1 min wash with HBS-N buffer at the same flow rate. Next, hP2X7 (15 μg/mL) in 10 mM sodium acetate (pH 5.0) was injected into the working channel of the biosensor for 10 min at a flow rate of 5 μL/min. The final level of immobilization was 12300 RU (12.3 ng of protein). The control channel without immobilized P2X7R was used to correct the effects of the nonspecific binding of analytes to the chip surface.
Lyophilized peptides were prepared as 100 μM stock solutions in HBS-N buffer. Experimental peptide samples were prepared in the range of 5–100 μM. The samples were injected through the channels of the biosensor (working and reference) at a flow rate of 10 μL/min for 6 min. The dissociation of the formed peptide/P2X7 complexes was recorded for at least 6 min from the moment of injection at the same flow rate after the injection of the sample. After each cycle of the biosensor, the bound analyte was removed by double injection of the regenerating solution (2 M NaCl, 1% CHAPS) at a flow rate of 30 μL/min for 30 s.
SPR sensorgrams were processed in Biacore 3000 Evaluation Software v.1.0 (GE Healthcare, Chicago, IL, USA) and BIAevaluation Software v. 4.1.1 (GE Healthcare, Chicago, IL, USA) using “1:1 binding (Langmuir)” and “two-state binding (conformational change)” data processing models.
The 1:1 (Langmuir) binding model is a 1:1 interaction model between a compound (C) and an immobilized protein (P) and is equivalent to the Langmuir isotherm for surface adsorption: C + P ↔ CP.
The two-state binding (conformational change) model describes the 1:1 binding of a compound (C) to an immobilized protein (P) followed by a conformational change in the complex (CP ↔ CP*). It is assumed that the conformationally changed complex can dissociate only by the reverse conformational change: C + P ↔ CP ↔ CP*. The final kinetic parameters were obtained from the models that best agree with the experimental curves for the minimum of the obtained value of chi2. The equations describing the models used are as follows: • (1) 1:1 (Langmuir) binding: Kd = koff/kon, where Kd is the equilibrium dissociation constant, koff is the dissociation rate constant, kon is the association rate constant. • (2) Reaction of two states (with conformational change): Kd = koff1/kon1 × (1 + kon2/koff2) − 1, where Kd is the equilibrium dissociation constant, koff1 is the dissociation rate constant, kon1 is the association rate constant, kon2 is the direct association rate constant for the CP ↔ transition CP*, koff2 is the inverse dissociation rate constant for the CP ↔ CP* transition.
The model describing the interaction was chosen according to the lowest chi2 parameter’s value. Chi2 is a measure of the average squared residual between the experimental data and the fitted curve.

[1] = model: binding with two states (CP ↔ CP* transition), 25 °C, HBS-N pH 7.4, average ± SD, n = 3
[2] = model: binding with two states, 25 °C, HBS-N pH 7.4, average ± SD, n = 3

Sequence: RGICSEPKVVGPCKAGLRRFYYDSETGECKPFIYGGCKGNKNNFETLHACRGICRA (disulfide 4-54, 13-37, 29-50 (inferred)) [HCRG1]
- affinity to P2X7 (SPR, peptides 5–100 μM): highest affinity
- koff2 [1]: (1.5 ± 0.20) × 10^−3 c^−1
- kon2 [1]: (8.5 ± 1.0) × 10^−3 mole^−1c^−1
- koff1 [2]: (4.37 ± 0.57) × 10^−2 c^−1
- kon1 [2]: (9.20 ± 1.10) × 10^2 mole^−1c^−1
- Kd (model: binding with two states, 25 °C, HBS-N pH 7.4, n = 3): 7.13 µM
